{"source": "patent US20230279482A1", "about": "“COMPOSITIONS, METHODS AND USES FOR QUANTIFYING TRANSCRIPTION AND BIOSENSING OF SMALL MOLECULES USING A NOVEL TYPE VI CRISPR-CAS ASSAY” (THE REGENTS OF THE UNIVERSITY OF COLORADO, A BODY CORPORATE, priority 2020, published 2023)", "key": {"[1]": {"tested_on": "guanine riboswitch xpt/pbuE*6U", "test": "SPRINT compound screen on guanine riboswitch", "assay_type": "biochemical", "conditions": "1 μM, FIG. 10", "method": "Briefly, the transcriptional response of the guanine riboswitch xpt/pbuE*6U to 30 different compounds was measured at two different concentrations each (FIG. 9A and FIG. 10). The concentrations used were 10 μM and 1 mM for most compounds. The signal that was obtained from control experiments with the solvents DMSO or water was subtracted from all values."}, "[2]": {"tested_on": "SPRINT assay without riboswitch (constitutively transcribed Cas13a target)", "test": "SPRINT control screen with constitutive promoter template (PAINS identification)", "conditions": "FIG. 9B", "description": "The master mix was gently mixed by pipetting up and down and incubated at 37° C. for 15 minutes to allow binding of crRNA to Cas13a protein and the microwell plate was prepared by adding 3 μL of 10× ligand to the wells. The reaction was initiated by addition of rNTPs to the master mix to a concentration of 20 μM and then 27 μL of the complete master mix were added to each well and pipetted up and down to mix with the ligand in the wells. The plate was covered with an optical adhesive film to prevent evaporation of the sample while taking fluorescence measurements in a plate reader that was preheated to 37° C."}, "guanine riboswitch": {"tested_on": "guanine riboswitch", "conditions": "as low as; cited from earlier work"}, "bacteria": {"tested_on": "bacteria", "conditions": "cited from earlier work"}, "tetR [3]": {"target": "T1, tetR (Escherichia coli, UniProt P04483)", "T1 sequence (P04483 whole entry)": "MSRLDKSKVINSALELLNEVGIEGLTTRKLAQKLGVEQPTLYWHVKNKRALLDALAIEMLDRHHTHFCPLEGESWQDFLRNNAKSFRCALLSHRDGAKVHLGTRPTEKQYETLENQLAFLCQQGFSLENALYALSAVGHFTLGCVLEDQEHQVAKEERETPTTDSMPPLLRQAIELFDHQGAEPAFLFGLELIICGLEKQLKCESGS", "test": "biochemical", "method": "In other exemplary methods, reactions with allosteric transcription factors (aTFs), ROSALIND reagent buffer (10× buffer containing, for assays contemplated herein, but not limited to: 400 mM Tris-HCl, pH 8.0, 200 mM NaCl, 20 mM spermidine, 100 mM DTT and 80 mM MgCl2) were used. The buffer was prepared fresh or stored as single-use aliquots at −80° C. […] The final concentration of the aTF monomers was either 2.5 μM tetR or 10 μM smtB. The master mix was incubated for 15 minutes at 37° C. which allows the aTFs to bind to the operator sequence.\nIn another exemplary method, bacterial transcription can be regulated by allosteric transcription factors (aTFs), such as activators or repressors, which have previously been used for small molecule detection. Another system (“ROSALIND”) enabled rapid detection of compounds via aTFs. […] The ROSALIND buffer system differs from the SPRINT or SHERLOCK buffer. Therefore, it was tested whether aTF-based ROSALIND reactions could be integrated with the Cas13a-based detection method. To simplify the system, the inorganic pyrophosphatase (IPPase) enzyme was first removed from the ROSALIND system. IPPase was used in transcription reactions to degrade pyrophosphate which was a reaction product of the RNA polymerase and can inhibit the reaction. […] Adaptions included reducing the concentrations of rNTP from 2.85 mM to 40 μM, DNA template from 25 to 15 nM, and T7 RNAP from 10 to 6.7 ng/μL.\nThe responses of the de-repressors tetR and smtB were measured with SPRINT."}, "tetR [4]": {"target": "T1, tetR", "conditions": "read-out: previously reported range; cited from earlier work"}, "bacterial RNAP [5]": {"target": "T2, bacterial RNAP (Escherichia coli, UniProt P0A8V2)", "test": "SPRINT rifampicin titration with constitutive promoter", "assay_type": "biochemical, E. coli"}, "bacterial RNAP [6]": {"target": "T2, bacterial RNAP", "conditions": "cited from earlier work"}}, "note": "Like-named read-outs stand apart in the source and are kept apart here."}
{"molecule": "Nc1nc(N)c(N)c(=O)[nH]1", "note": "[2,5,6-TAP]", "values": [{"measurement": "transcriptional activation at low concentration", "setting": "[1]", "value": "only slightly activated transcription"}, {"measurement": "effect on enzymatic activity of the SPRINT assay at high concentration", "setting": "[2]; 100 μM, FIG. 10", "value": "completely shut down enzymatic activity"}, {"measurement": "interference with SPRINT assay (PAINS)", "setting": "[2]; constitutive promoter template", "value": "interfering compounds"}, {"measurement": "concentration at which it binds the guanine riboswitch", "setting": "guanine riboswitch", "value": "≥ 100", "unit": "nM"}, {"measurement": "concentration with bactericidal properties", "setting": "bacteria", "value": 8, "unit": "mM"}]}
{"molecule": "Cc1c2c(c(O)c3c(O)cccc13)C(=O)[C@]1(O)C(=O)C(C(N)=O)=C(O)[C@@H](N(C)C)[C@@H]1C2", "note": "[anhydrotetracycline]", "values": [{"measurement": "EC50", "setting": "tetR [3]", "value": "1.9 ± 0.2", "unit": "µM"}, {"measurement": "EC50", "setting": "tetR [4]", "value": "1 to 2.5", "unit": "µM"}]}
{"molecule": "CO[C@H]1/C=C/O[C@@]2(C)Oc3c(C)c(O)c4c(O)c(c(/C=N/N5CCN(C)CC5)c(O)c4c3C2=O)NC(=O)/C(C)=C\\C=C\\[C@H](C)[C@H](O)[C@@H](C)[C@@H](O)[C@@H](C)[C@H](OC(C)=O)[C@@H]1C", "note": "[rifampicin]", "values": [{"measurement": "IC50", "setting": "bacterial RNAP [5]", "value": "0.0059 ± 0.0006", "unit": "µM"}, {"measurement": "Kd", "setting": "bacterial RNAP [6]", "value": 0.003, "unit": "µM"}]}
